According to PubChem BioAssay (NCI):
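GI50 marks 50% less growth. The concentration for full growth arrest is given as TGI.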

Legend:
Assay in all cases: DTP human tumour cell line panel, 384-well format
786-0 renal = tested on: 786-0 renal
A498 renal = tested on: A498 renal
A549 NSCLC = tested on: A549 NSCLC
ACHN renal = tested on: ACHN renal
BT-549 breast = tested on: BT-549 breast
CAKI-1 renal = tested on: CAKI-1 renal
CCRF-CEM leukemia = tested on: CCRF-CEM leukemia
COLO 205 colon = tested on: COLO 205 colon
DU-145 prostate = tested on: DU-145 prostate
HCC-2998 colon = tested on: HCC-2998 colon
HCT-116 colon = tested on: HCT-116 colon
HCT-15 colon = tested on: HCT-15 colon
HL-60(TB) leukemia = tested on: HL-60(TB) leukemia
HOP-62 NSCLC = tested on: HOP-62 NSCLC
HOP-92 NSCLC = tested on: HOP-92 NSCLC
HT29 colon = tested on: HT29 colon
IGROV1 ovarian = tested on: IGROV1 ovarian
K-562 leukemia = tested on: K-562 leukemia
KM12 colon = tested on: KM12 colon
LOX IMVI melanoma = tested on: LOX IMVI melanoma
M14 melanoma = tested on: M14 melanoma
MALME-3M melanoma = tested on: MALME-3M melanoma
MCF7 breast = tested on: MCF7 breast
MDA-MB-231 breast = tested on: MDA-MB-231 breast
MDA-MB-435 melanoma = tested on: MDA-MB-435 melanoma
MDA-MB-468 breast = tested on: MDA-MB-468 breast
MOLT-4 leukemia = tested on: MOLT-4 leukemia
NCI-H226 lung = tested on: NCI-H226 lung

`N[C@@H](CSSC[C@H](N)C(=O)N1CCn2cc(-c3ccccc3)nc2[C@@H]1CC1CCCCC1)C(=O)N1CCn2cc(-c3ccccc3)nc2[C@@H]1CC1CCCCC1` gave a GI50 ([…]-0 renal) of 1510 nM, a TGI (786-0 renal) of 2930 nM and a GI50 (A498 renal) of 1630 nM. The TGI (A498 renal) was 3000 nM, the GI50 (A549 NSCLC) was 1260 nM and the TGI (A549 NSCLC) was 2530 nM. For the same compound, the GI50 (ACHN renal) was 1950 nM, the TGI (ACHN renal) was 3390 nM and the GI50 (BT-549 breast) was 1840 nM. For the same compound, the TGI (BT-549 breast) was 3250 nM, the GI50 (CAKI-1 renal) was 1930 nM and the TGI (CAKI-1 renal) was 3560 nM. It also gave a GI50 (CCRF-CEM leukemia) of 294 nM, a TGI (CCRF-CEM leukemia) of 1270 nM and a GI50 (COLO 205 colon) of 1390 nM. For the same compound, the TGI (COLO 205 colon) was 2700 nM, the GI50 (DU-145 prostate) was 1850 nM and the TGI (DU-145 prostate) was 6340 nM. For the same compound, the GI50 (HCC-2998 colon) was 1700 nM, the TGI (HCC-2998 colon) was 3080 nM and the GI50 (HCT-116 colon) was 215 nM. For the same compound, the TGI (HCT-116 colon) was 490 nM, the GI50 (HCT-15 colon) was 1580 nM and the TGI (HCT-15 colon) was 2930 nM. For the same compound, the GI50 (HL-60(TB) leukemia) was 796 nM, the TGI (HL-60(TB) leukemia) was 1990 nM and the GI50 (HOP-62 NSCLC) was 1250 nM. It also gave a TGI (HOP-62 NSCLC) of 2530 nM, a GI50 (HOP-92 NSCLC) of 1980 nM and a TGI (HOP-92 NSCLC) of 3440 nM. For the same compound, the GI50 (HT29 colon) was 1470 nM, the TGI (HT29 colon) was 2840 nM and the GI50 (IGROV1 ovarian) was 1600 nM. For the same compound, the TGI (IGROV1 ovarian) was 3310 nM, the GI50 (K-562 leukemia) was 551 nM and the TGI (K-562 leukemia) was 1740 nM. The GI50 (KM12 colon) was 312 nM, the TGI (KM12 colon) was 1550 nM and the GI50 (LOX IMVI melanoma) was 1330 nM. It also gave a TGI (LOX IMVI melanoma) of 2620 nM, a GI50 (M14 melanoma) of 146 nM and a TGI (M14 melanoma) of 355 nM. It also gave a GI50 (MALME-3M melanoma) of 1140 nM, a TGI (MALME-3M melanoma) of 2360 nM and a GI50 (MCF7 breast) of 1460 nM. For the same compound, the TGI (MCF7 breast) was 2790 nM, the GI50 (MDA-MB-231 breast) was 1630 nM and the TGI (MDA-MB-231 breast) was 2990 nM. The GI50 (MDA-MB-435 melanoma) was 677 nM, the TGI (MDA-MB-435 melanoma) was 1930 nM and the GI50 (MDA-MB-468 breast) was 1080 nM. The TGI (MDA-MB-468 breast) was 2280 nM, the GI50 (MOLT-4 leukemia) was 140 nM and the TGI (MOLT-4 leukemia) was 271 nM. It also gave a GI50 (NCI-H226 lung) of 1820 nM.
